Experimental data taken from article PMC9090415, “Discovery of small molecule inhibitors of Plasmodium falciparum apicoplast DNA polymerase” (Journal of Enzyme Inhibition and Medicinal Chemistry, 2022).

Biological target: P. falciparum apicoplast DNA polymerase (Pf-apPOL) (Plasmodium falciparum, UniProt Q8ILY1)
Assay: Fluorescence-based high-throughput DNA polymerase assay (molecular beacon), primary screen and dose-response;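 on % inhibition ApPOL 90': test concentration in µM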;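 on % inhibition Apol 40': compound concentration given in µM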;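 on % inhibition apPOL 180': test concentration in µM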
Type: biochemical
Conditions: for DNA Pol: 90 min, 10 µM
How it was run: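 Single-point screening used 10 µM compound with 20 nM polymerase, 20 nM hairpin substrate and 6 µM dNTPs for 90 min at 25 °C. Confirmatory titrations (2.5–80 µM) followed fluorescence at three times, and IC50 was derived from a fit including a cooperativity term n.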

Chain of P. falciparum apicoplast DNA polymerase (Pf-apPOL) (Q8ILY1 entry or part of it): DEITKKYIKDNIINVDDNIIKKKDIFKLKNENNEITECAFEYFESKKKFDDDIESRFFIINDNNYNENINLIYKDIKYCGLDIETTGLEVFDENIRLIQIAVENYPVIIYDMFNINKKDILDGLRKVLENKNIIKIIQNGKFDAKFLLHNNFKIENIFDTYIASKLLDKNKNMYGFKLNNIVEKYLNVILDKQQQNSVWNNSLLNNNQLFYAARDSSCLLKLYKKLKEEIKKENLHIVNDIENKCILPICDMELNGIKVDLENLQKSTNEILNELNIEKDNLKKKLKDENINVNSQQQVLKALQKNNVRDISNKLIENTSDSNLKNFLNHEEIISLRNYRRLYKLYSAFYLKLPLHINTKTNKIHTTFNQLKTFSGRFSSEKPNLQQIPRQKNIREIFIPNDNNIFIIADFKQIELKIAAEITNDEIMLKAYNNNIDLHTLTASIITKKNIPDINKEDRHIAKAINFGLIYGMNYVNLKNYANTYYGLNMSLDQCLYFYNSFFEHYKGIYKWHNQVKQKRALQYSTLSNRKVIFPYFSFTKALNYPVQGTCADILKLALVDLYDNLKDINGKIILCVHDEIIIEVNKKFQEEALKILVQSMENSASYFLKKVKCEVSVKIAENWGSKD

Compound: Cc1nc(/N=N/c2ccc(C(=O)[O-])cc2)c(COP(=O)([O-])[O-])c(C=O)c1O.[Na+].[Na+].[Na+] [KU0261395]
- DNA Pol ('DNA Pol' of the 186 hits list (primary screen value)): 94
- DNA Pol (DNA Pol (primary screen value)): 94
- % inhibition Apo pol 10' (DRC-1, concentration 2.5): 68.7077%
- % inhibition Apo pol 10' (DRC-1, concentration 5): 75.1682%
- % inhibition Apo pol 10' (DRC-1, concentration 10): 82.6072%
- % inhibition Apo pol 10' (DRC-1, concentration 20): 83.4638%
- % inhibition Apo pol 10' (DRC-1, concentration 40): 87.7541%
- % inhibition Apo pol 10' (DRC-1, concentration 80): 88.013%
- % inhibition Apol 90' (DRC-1, concentration 2.5): 38.1069%
- % inhibition Apol 90' (DRC-1, concentration 5): 43.9893%
- % inhibition Apol 90' (DRC-1, concentration 10): 54.4878%
- % inhibition Apol 90' (DRC-1, concentration 20): 58.7781%
- % inhibition Apol 90' (DRC-1, concentration 40): 68.7531%
- % inhibition Apol 90' (DRC-1, concentration 80): 75.4152%
- % inhibition apPOL 180' (DRC-1, concentration 2.5): 26.3863%
- % inhibition apPOL 180' (DRC-1, concentration 5): 31.3621%
- % inhibition apPOL 180' (DRC-1, concentration 10): 42.4654%
- % inhibition apPOL 180' (DRC-1, concentration 20): 47.0791%
- % inhibition apPOL 180' (DRC-1, concentration 40): 59.2191%
- % inhibition apPOL 180' (DRC-1, concentration 80): 68.3493%
- % inhibition Apo pol 5' (DRC-2, concentration 2.5): 42%
- % inhibition Apo pol 5' (DRC-2, concentration 5): 44%
- % inhibition Apo pol 5' (DRC-2, concentration 10): 53%
- % inhibition Apo pol 5' (DRC-2, concentration 20): 53%
- % inhibition Apo pol 5' (DRC-2, concentration 40): 54%
- % inhibition Apo pol 5' (DRC-2, concentration 80): 55%
- % inhibition Apol 40' (DRC-2, concentration 2.5): 33%
- % inhibition Apol 40' (DRC-2, concentration 5): 40%
- % inhibition Apol 40' (DRC-2, concentration 10): 51%
- % inhibition Apol 40' (DRC-2, concentration 20): 56%
- % inhibition Apol 40' (DRC-2, concentration 40): 61%
- % inhibition Apol 40' (DRC-2, concentration 80): 66%
- % inhibition ApPOL 90' (DRC-2, concentration 2.5): 29%
- % inhibition ApPOL 90' (DRC-2, concentration 5): 36%
- % inhibition ApPOL 90' (DRC-2, concentration 10): 48%
- % inhibition ApPOL 90' (DRC-2, concentration 20): 53%
- % inhibition ApPOL 90' (DRC-2, concentration 40): 60%
- % inhibition ApPOL 90' (DRC-2, concentration 80): 66%
- % inhibition apPOL 180' (DRC-2, concentration 2.5): 20%
- % inhibition apPOL 180' (DRC-2, concentration 5): 26%
- % inhibition apPOL 180' (DRC-2, concentration 10): 39%
- % inhibition apPOL 180' (DRC-2, concentration 20): 48%
- % inhibition apPOL 180' (DRC-2, concentration 40): 56%
- % inhibition apPOL 180' (DRC-2, concentration 80): 66%

Compound: CN(C)S(=O)(=O)Oc1ccc(-c2noc(-c3ccc(Oc4cc(Cl)cc(Cl)c4)o3)n2)cc1 [KU0263859]
- DNA Pol ("DNA Pol" of the 186 hits list (screen value)): 81
- % inhibition Apo pol 10' (DRC-1, concentration 2.5): 3.819%
- % inhibition Apo pol 10' (DRC-1, concentration 5): 17.153%
- % inhibition Apo pol 10' (DRC-1, concentration 10): 39.7031%
- % inhibition Apo pol 10' (DRC-1, concentration 20): 66.3992%
- % inhibition Apo pol 10' (DRC-1, concentration 40): 79.6706%
- % inhibition Apo pol 10' (DRC-1, concentration 80): 81.4369%
- % inhibition Apol 90' (DRC-1, concentration 2.5): 1.99%
- % inhibition Apol 90' (DRC-1, concentration 5): 7.942%
- % inhibition Apol 90' (DRC-1, concentration 10): 26.2984%
- % inhibition Apol 90' (DRC-1, concentration 20): 55.9318%
- % inhibition Apol 90' (DRC-1, concentration 40): 71.2326%
- % inhibition Apol 90' (DRC-1, concentration 80): 82.3525%
- % inhibition apPOL 180' (DRC-1, concentration 2.5): 0.6453%
- % inhibition apPOL 180' (DRC-1, concentration 5): 1.378%
- % inhibition apPOL 180' (DRC-1, concentration 10): 13.3092%
- % inhibition apPOL 180' (DRC-1, concentration 20): 44.3234%
- % inhibition apPOL 180' (DRC-1, concentration 40): 58.5688%
- % inhibition apPOL 180' (DRC-1, concentration 80): 76.7438%
- % inhibition Apo pol 5' (DRC-2, concentration 2.5): 2.6%
- % inhibition Apo pol 5' (DRC-2, concentration 5): 18%
- % inhibition Apo pol 5' (DRC-2, concentration 10): 34%
- % inhibition Apo pol 5' (DRC-2, concentration 20): 47%
- % inhibition Apo pol 5' (DRC-2, concentration 40): 47%
- % inhibition Apo pol 5' (DRC-2, concentration 80): 46%
- % inhibition Apol 40' (DRC-2, concentration 2.5): 3%
- % inhibition Apol 40' (DRC-2, concentration 5): 16%
- % inhibition Apol 40' (DRC-2, concentration 10): 36%
- % inhibition Apol 40' (DRC-2, concentration 20): 57%
- % inhibition Apol 40' (DRC-2, concentration 40): 65%
- % inhibition Apol 40' (DRC-2, concentration 80): 68%
- % inhibition ApPOL 90' (DRC-2, concentration 2.5): 0.164%
- % inhibition ApPOL 90' (DRC-2, concentration 5): 12%
- % inhibition ApPOL 90' (DRC-2, concentration 10): 32%
- % inhibition ApPOL 90' (DRC-2, concentration 20): 56%
- % inhibition ApPOL 90' (DRC-2, concentration 40): 67%
- % inhibition ApPOL 90' (DRC-2, concentration 80): 73%
- % inhibition apPOL 180' (DRC-2, concentration 2.5): -5.61%
- % inhibition apPOL 180' (DRC-2, concentration 5): 5.64%
- % inhibition apPOL 180' (DRC-2, concentration 10): 20%
- % inhibition apPOL 180' (DRC-2, concentration 20): 47%
- % inhibition apPOL 180' (DRC-2, concentration 40): 65%
- % inhibition apPOL 180' (DRC-2, concentration 80): 76%
- DNA Pol (primary screen value, DNA Pol): 81
